Reference: patent publication US20260232767A1, “INTERLEUKIN-23 RECEPTOR ANTAGONIST PEPTIDES FOR USE IN THE TREATMENT OF PSORIASIS” (Janssen Pharmaceutica NV, priority 2023, published 2026)

System: subjects with moderate-to-severe plaque psoriasis
Experiment: Safety, adverse events, Example 2 through Week 56
Assay type: in vivo, human
Description: The LTE safety analysis was based on randomized participants in Example who entered the present long-term extension study and received at least one dose of study intervention (including a partial dose) during the study period.

[1] = 25 mg QD, LTE Safety analysis set
[2] = 50 mg QD, Week 16 through Week 56
[3] = 50 mg QD, LTE Safety analysis set

`CC(=O)NCCCC[C@@H]1NC(=O)[C@H](Cc2c[nH]c3c(C)cccc23)NC(=O)[C@H]([C@@H](C)O)NC(=O)[C@H](CC(N)=O)NC(=O)[C@@H](NC(C)=O)C(C)(C)SSC(C)(C)[C@@H](C(=O)N[C@@H](Cc2ccc(OCCN)cc2)C(=O)N[C@@H](Cc2ccc3ccccc3c2)C(=O)NC2(C(=O)N[C@@H](CCC(=O)O)C(=O)N[C@@H](CC(N)=O)C(=O)N[C@@H](Cc3cccnc3)C(=O)N(C)CC(N)=O)CCOCC2)NC1=O` [IL-23 receptor antagonist peptide, Ac-[Pen]*-N-T-[W(7-Me)]-[Lys(Ac)]-[Pen]*-Phe[4-(2-aminoethoxy)]-[2-Nal]-[THP]-E-N-[3-Pal]-Sarc-NH2 (*[Pen]-[Pen]* formdisulfidebond)] was tested, and the “Subjects with treatment-emergent serious AE: Neoplasms benign, malignant and unspecified (incl cysts and polyps)” value (25 mg QD, through Week 56) was 0, the “Subjects with treatment-emergent serious AE: Nervous system disorders” value (25 mg QD, through Week 56) was 0 and the “Subjects with treatment-emergent serious AE: Non-cardiac chest pain” value (25 mg QD, through Week 56) was 0. For the same compound, the “Subjects with treatment-emergent serious AE: Psychiatric disorders” value (25 mg QD, through Week 56) was 0, the “Subjects with treatment-emergent serious AE: Respiratory, thoracic and mediastinal disorders” value (25 mg QD, through Week 56) was 0 and the “Subjects with treatment-emergent serious AE: Suicide attempt” value (25 mg QD, through Week 56) was 0. The “Subjects with treatment-emergent serious AE: Tonsillar hypertrophy” value (25 mg QD, through Week 56) was 0, the “Subjects with treatment-emergent serious AE: Uterine leiomyoma” value (25 mg QD, through Week 56) was 0 and the “Subjects with treatment-emergent serious AE: Ventricular dysfunction” value (25 mg QD, through Week 56) was 0. For the same compound, the “Suicide attempt: number of subjects” value (25 mg QD, through Week 56) was 0, the “Sunburn: number of subjects” value (25 mg QD, through Week 56) was 0 and the “Thrombocytopenia: % of subjects” value (25 mg QD, through Week 56) was “(2.3%)”. For the same compound, the “Thrombocytopenia: number of subjects” value (25 mg QD, through Week 56) was 1, the “Thrombocytosis: number of subjects” value (25 mg QD, through Week 56) was 0 and the “Tonsillar hypertrophy: number of subjects” value (25 mg QD, through Week 56) was 0. The “Tooth fracture: number of subjects” value (25 mg QD, through Week 56) was 0, the “Type 2 diabetes mellitus: number of subjects” value (25 mg QD, through Week 56) was 0 and the “Urinary tract disorder: number of subjects” value (25 mg QD, through Week 56) was 0. For the same compound, the “Uterine leiomyoma: number of subjects” value (25 mg QD, through Week 56) was 0, the “Vascular disorders: number of subjects” value (25 mg QD, through Week 56) was 0 and the “Ventricular dysfunction: number of subjects” value (25 mg QD, through Week 56) was 0. For the same compound, the “Vertigo: % of subjects” value (25 mg QD, through Week 56) was “(2.3%)”, the “Vertigo: number of subjects” value (25 mg QD, through Week 56) was 1 and the “Vitamin D deficiency: number of subjects” value (25 mg QD, through Week 56) was 0. The “Subjects with 1 or more Serious Infections and infestations” value [1] was 0, the “Subjects with 1 or more Serious adverse events” value [1] was 0 and the “Subjects with adverse event: Arthralgia” value [1] was 0. The “Subjects with adverse event: Hypertension” value [1] was 0, the “Subjects with adverse event: Influenza” value [1] was 0 and the “Subjects with adverse event: Sinusitis” value [1] was 0. The “Subjects with adverse event: Vomiting” value [1] was 0, the “Subjects with serious adverse event: Cerebrovascular accident” value [1] was 0 and the “Subjects with serious adverse event: Coronary artery disease” value [1] was 0. For the same compound, the “Subjects with serious adverse event: Diverticulitis” value [1] was 0, the “Subjects with serious adverse event: Foot deformity” value [1] was 0 and the “Subjects with serious adverse event: Intervertebral disc protrusion” value [1] was 0. For the same compound, the “Subjects with serious adverse event: Ligament injury” value [1] was 0, the “Subjects with serious adverse event: Non-cardiac chest pain” value [1] was 0 and the “Subjects with serious adverse event: Tonsillar hypertrophy” value [1] was 0. For the same compound, the “Subjects with serious adverse event: Uterine leiomyoma” value [1] was 0, the “Subjects with serious adverse event: Ventricular dysfunction” value [1] was 0 and the “Subjects with 1 or more treatment-emergent serious adverse events” value (25 mg QD, Week 16-56) was 0. The “Subjects with AE leading to discontinuation: Asthenia” value (25 mg QD, Week 16-56) was 0, the “Subjects with AE leading to discontinuation: Chills” value (25 mg QD, Week 16-56) was 0 and the “Subjects with AE leading to discontinuation: Ear and labyrinth disorders” value (25 mg QD, Week 16-56) was 0. The “Subjects with AE leading to discontinuation: Gastrointestinal disorders” value (25 mg QD, Week 16-56) was 0, the “Subjects with AE leading to discontinuation: General disorders and administration site conditions” value (25 mg QD, Week 16-56) was 0 and the “Subjects with AE leading to discontinuation: Headache” value (25 mg QD, Week 16-56) was 0. The “Subjects with AE leading to discontinuation: Insomnia” value (25 mg QD, Week 16-56) was 0, the “Subjects with AE leading to discontinuation: Nervous system disorders” value (25 mg QD, Week 16-56) was 0 and the “Subjects with AE leading to discontinuation: Proctalgia” value (25 mg QD, Week 16-56) was 0. The “Subjects with AE leading to discontinuation: Psoriasis” value (25 mg QD, Week 16-56) was 0, the “Subjects with AE leading to discontinuation: Psychiatric disorders” value (25 mg QD, Week 16-56) was 0 and the “Subjects with AE leading to discontinuation: Skin and subcutaneous tissue disorders” value (25 mg QD, Week 16-56) was 0. The “Subjects with AE leading to discontinuation: Vertigo” value (25 mg QD, Week 16-56) was 0, the “Subjects with AE leading to discontinuation: Vomiting” value (25 mg QD, Week 16-56) was 0 and the “Subjects with COVID-19 associated AE of interest: SARS-CoV-2 test positive” value (25 mg QD, Week 16-56) was 0. The “Subjects with treatment-emergent AE: Arthralgia” value (25 mg QD, Week 16-56) was 0, the “Subjects with treatment-emergent AE: Hypertension” value (25 mg QD, Week 16-56) was 0 and the “Subjects with treatment-emergent AE: Influenza” value (25 mg QD, Week 16-56) was 0. The “Subjects with treatment-emergent AE: Musculoskeletal and connective tissue disorders” value (25 mg QD, Week 16-56) was 0, the “Subjects with treatment-emergent AE: Sinusitis” value (25 mg QD, Week 16-56) was 0 and the “Subjects with treatment-emergent AE: Vascular disorders” value (25 mg QD, Week 16-56) was 0. For the same compound, the “Subjects with treatment-emergent AE: Vomiting” value (25 mg QD, Week 16-56) was 0, the “Subjects with treatment-emergent serious AE: Cardiac disorders” value (25 mg QD, Week 16-56) was 0 and the “Subjects with treatment-emergent serious AE: Cerebrovascular accident” value (25 mg QD, Week 16-56) was 0. For the same compound, the “Subjects with treatment-emergent serious AE: Coronary artery disease” value (25 mg QD, Week 16-56) was 0, the “Subjects with treatment-emergent serious AE: Diverticulitis” value (25 mg QD, Week 16-56) was 0 and the “Subjects with treatment-emergent serious AE: Foot deformity” value (25 mg QD, Week 16-56) was 0. The “Subjects with treatment-emergent serious AE: General disorders and administration site conditions” value (25 mg QD, Week 16-56) was 0, the “Subjects with treatment-emergent serious AE: Infections and infestations” value (25 mg QD, Week 16-56) was 0 and the “Subjects with treatment-emergent serious AE: Injury, poisoning and procedural complications” value (25 mg QD, Week 16-56) was 0. For the same compound, the “Subjects with treatment-emergent serious AE: Intervertebral disc protrusion” value (25 mg QD, Week 16-56) was 0, the “Subjects with treatment-emergent serious AE: Ligament injury” value (25 mg QD, Week 16-56) was 0 and the “Subjects with treatment-emergent serious AE: Musculoskeletal and connective tissue disorders” value (25 mg QD, Week 16-56) was 0. For the same compound, the “Subjects with treatment-emergent serious AE: Neoplasms benign, malignant and unspecified (incl cysts and polyps)” value (25 mg QD, Week 16-56) was 0, the “Subjects with treatment-emergent serious AE: Nervous system disorders” value (25 mg QD, Week 16-56) was 0 and the “Subjects with treatment-emergent serious AE: Non-cardiac chest pain” value (25 mg QD, Week 16-56) was 0. The “Subjects with treatment-emergent serious AE: Respiratory, thoracic and mediastinal disorders” value (25 mg QD, Week 16-56) was 0, the “Subjects with treatment-emergent serious AE: Tonsillar hypertrophy” value (25 mg QD, Week 16-56) was 0 and the “Subjects with treatment-emergent serious AE: Uterine leiomyoma” value (25 mg QD, Week 16-56) was 0. The “Subjects with treatment-emergent serious AE: Ventricular dysfunction” value (25 mg QD, Week 16-56) was 0, the “Number of subjects with treatment-emergent AE: Cholelithiasis” value [2] was 0 and the “Number of subjects with treatment-emergent AE: Ear and labyrinth disorders” value [2] was 0. The “Number of subjects with treatment-emergent AE: Endocrine disorders” value [2] was 0, the “Number of subjects with treatment-emergent AE: Eye disorders” value [2] was 0 and the “Number of subjects with treatment-emergent AE: Eyelid skin dryness” value [2] was 0. The “Number of subjects with treatment-emergent AE: Goiter” value [2] was 0, the “Number of subjects with treatment-emergent AE: Hepatobiliary disorders” value [2] was 0 and the “Number of subjects with treatment-emergent AE: Hypertransaminasemia” value [2] was 0. For the same compound, the “Number of subjects with treatment-emergent AE: Immune system disorders” value [2] was 1, the “Number of subjects with treatment-emergent AE: Insomnia” value [2] was 0 and the “Number of subjects with treatment-emergent AE: Ocular cyst” value [2] was 0. For the same compound, the “Number of subjects with treatment-emergent AE: Psychiatric disorders” value [2] was 0, the “Number of subjects with treatment-emergent AE: Retinal vein occlusion” value [2] was 0 and the “Number of subjects with treatment-emergent AE: Seasonal allergy” value [2] was 1. For the same compound, the “Number of subjects with treatment-emergent AE: Vertigo” value [2] was 0, the “Subjects with treatment-emergent AE: Immune system disorders (%)” value [2] was “(2.6%)” and the “Subjects with treatment-emergent AE: Seasonal allergy (%)” value [2] was “(2.6%)”. The “Subjects who discontinued study agent because of 1 or more adverse events” value [3] was 0, the “Subjects with 1 or more Serious Infections and infestations” value [3] was 0 and the “Subjects with adverse event: Headache” value [3] was 0. For the same compound, the “Subjects with adverse event: Meniscus injury” value [3] was 0, the “Subjects with adverse event: Vomiting” value [3] was 0 and the “Subjects with serious adverse event: Cerebrovascular accident” value [3] was 0. For the same compound, the “Subjects with serious adverse event: Diverticulitis” value [3] was 0, the “Subjects with serious adverse event: Intervertebral disc protrusion” value [3] was 0 and the “Subjects with serious adverse event: Ligament injury” value [3] was 0. For the same compound, the “Subjects with serious adverse event: Tonsillar hypertrophy” value [3] was 0, the “Subjects with serious adverse event: Uterine leiomyoma” value [3] was 0 and the “Subjects with serious adverse event: Ventricular dysfunction” value [3] was 0. For the same compound, the “Subjects with 1 or more treatment-emergent adverse events leading to discontinuation of study agent” value (50 mg QD, Week 16-56) was 0, the “Subjects with AE leading to discontinuation: Alanine aminotransferase increased” value (50 mg QD, Week 16-56) was 0 and the “Subjects with AE leading to discontinuation: Aspartate aminotransferase increased” value (50 mg QD, Week 16-56) was 0. The “Subjects with AE leading to discontinuation: Asthenia” value (50 mg QD, Week 16-56) was 0, the “Subjects with AE leading to discontinuation: Chills” value (50 mg QD, Week 16-56) was 0 and the “Subjects with AE leading to discontinuation: Ear and labyrinth disorders” value (50 mg QD, Week 16-56) was 0. For the same compound, the “Subjects with AE leading to discontinuation: Gamma-glutamyltransferase increased” value (50 mg QD, Week 16-56) was 0, the “Subjects with AE leading to discontinuation: Gastrointestinal disorders” value (50 mg QD, Week 16-56) was 0 and the “Subjects with AE leading to discontinuation: General disorders and administration site conditions” value (50 mg QD, Week 16-56) was 0. For the same compound, the “Subjects with AE leading to discontinuation: Headache” value (50 mg QD, Week 16-56) was 0.
